Where two headings read alike, the source gives them in different places. One block for each compound: values may come before it.
Legend:
Type in all cases: cell-based
[1] = system: SkBr3 (Her2 overexpressing breast cancer cells); test: Anti-proliferation activity against SkBr3 cells (MTS/PMS)
Method in brief: (§1)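 Cells seeded at 2000/well, attached overnight, then exposed to compound at varying concentrations (1% DMSO final) for 72 hours at 37° C. Viable cells read by MTS/PMS, normalised to 1% DMSO as 100% proliferation. IC50 from separate triplicate experiments.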

[2] = system: A549 (human alveolar basal epithelial cells); test: Anti-proliferation activity against A549 cells (MTS/PMS)
Description: (§2) Cells were maintained in a 1:1 mixture of Advanced DMEM/F12 (Gibco) supplemented with non-essential amino acids, L-glutamine (2 mM), streptomycin (500 μg/mL), penicillin (100 units/mL), and 10% FBS. Cells were grown to confluence in a humidified atmosphere (37° C., 5% CO2), seeded (2000/well, 100 μL) in 96-well plates, and allowed to attach overnight. Compound or GDA at varying concentrations in DMSO (1% DMSO final concentration) was added, and cells were returned to the incubator for 72 hours. At 72 hours, the number of viable cells was determined using an MTS/PMS cell proliferation kit (Promega) per the manufacturer's instructions. Cells incubated in 1% DMSO were used at 100% proliferation, and values were adjusted accordingly. IC50 values were calculated from separate experiments performed in triplicate using GraphPad Prism.

[3] = system: MM2 (metastatic mammary tumor cancer cells); test: Anti-proliferation activity against MM2 cells (MTS/PMS)
Description: as §2

[4] = system: MCF-7 (estrogen receptor positive breast cancer cells); test: Anti-proliferation activity against MCF-7 cells (MTS/PMS)
Method in brief: as §1

[5] = system: LN3 (metastatic human prostate cancer cells); test: Anti-proliferation activity against LN3 cells (MTS/PMS)
Description: as §2

[6] = system: PC-3 (androgen independent prostate cancer cells); test: Anti-proliferation activity against PC-3 cells; details: Homo sapiens, PC-3; Table 2; n = 3; read-out: IC50 PC-3
Method in brief: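 Antiproliferative activity was tested in PC-3 androgen-independent prostate cancer cells. Cells grown at 37° C. with 5% CO2 in Advanced DMEM/F12 (1:1) containing non-essential amino acids, 2 mM L-glutamine, streptomycin, penicillin and 10% FBS were plated at 2000/well in 96-well plates. Proliferation was normalized to 1% DMSO controls, and IC50 values from triplicate experiments were fitted in GraphPad Prism.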

[7] = system: LNCaP (androgen sensitive prostate cancer cells); test: Anti-proliferation activity against LNCaP cells; details: Homo sapiens, LNCaP; Table 2; n = 3; read-out: IC50 LNCaP
Method in brief: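 Cells seeded at 2000/well in Advanced DMEM/F12 with 10% FBS and attached overnight, then given compound in 1% DMSO final for 72 h at 37 °C, 5% CO2. Viable cells by MTS/PMS read-out, normalised to 1% DMSO as 100% proliferation. IC50 from separate triplicate experiments.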

[8] = system: PL45 (pancreatic cancer cells); test: Anti-proliferation activity against PL45 cells; details: Table 2, n = 3
[9] = system: HCT-116 (colon cancer cells characterized by wild-type p53); test: Anti-proliferation activity against HCT-116 cells; details: Homo sapiens, Table 2, n = 3
[10] = Homo sapiens, SK-BR-3, Table 20, indole-2-carboxamide analogues with noviose replacements, read-out: IC50, SKBr3
[11] = Homo sapiens, A549, Table 20, indole-2-carboxamide analogues with noviose replacements
[12] = Table 20, indole-2-carboxamide analogues with noviose replacements
[13] = Homo sapiens, MCF7, Table 20, indole-2-carboxamide analogues with noviose replacements, read-out: IC50, MCF-7
[14] = Homo sapiens, Table 20, indole-2-carboxamide analogues with noviose replacements
[15] = Homo sapiens, SK-BR-3, Table 12, aliphatic chain analogues, 72 hours, read-out: IC50 SKBr3
[16] = Homo sapiens, A549, Table 12, aliphatic chain analogues, 72 hours
[17] = Table 12, aliphatic chain analogues, 72 hours
[18] = Homo sapiens, MCF7, Table 12, aliphatic chain analogues, 72 hours, read-out: IC50 MCF-7
[19] = Homo sapiens, Table 12, aliphatic chain analogues, 72 hours
[20] = Table 13, various sugars on 8-methyl coumarin, 72 hours
[21] = Table 8, unsaturated azasugar analogues, 72 hours
[22] = Table 9, azasugar analogues on 8-methyl coumarin, 72 hours, read-out: IC50 SKBr3
[23] = Table 9, azasugar analogues on 8-methyl coumarin, 72 hours
[24] = Table 9, azasugar analogues on 8-methyl coumarin, 72 hours, read-out: IC50 MCF-7

- IC50 [1, 10]: 0.11 ± 0.01 µM
- IC50 [2, 11]: 0.59 µM
- IC50 [3, 12]: 0.87 ± 0.57 µM
- IC50 [4, 13]: 0.52 ± 0.05 µM
- IC50 [5, 14]: 1.47 ± 0.66 µM
Structure (SMILES): COc1cc2cc(NC(=O)c3cc4ccccc4[nH]3)c(=O)oc2c(C)c1OC1CCN(C)CC1 [KU-363]

- IC50 [1, 15]: 0.91 ± 0.17 µM
- IC50 [2, 16]: 3.43 µM
- IC50 [3, 17]: 4.08 µM
- IC50 [4, 18]: 1.53 ± 0.18 µM
- IC50 [5, 19]: 8.03 µM
Structure (SMILES): COc1cccc(-c2cc(C(=O)Nc3cc4ccc(OCCCN(C)C)c(OC)c4oc3=O)ccc2OC)c1 [KU-319]

Structure (SMILES): CO[C@@H]1[C@@H](O)[C@@H](O)[C@H](Oc2ccc3cc(NC(=O)c4cccc(N)c4)c(=O)oc3c2C)OC1(C)C [compound 19, 3-Amino-N-(7-((2R,3R,4S,5R)-3,4-dihydroxy-5-methoxy-6,6-dimethyltetrahydro-2H-pyran-2-yloxy)-8-methyl-2-oxo-2H-chromen-3-yl)benzamide]
- IC50 [6]: 14.7 ± 2.6 µM
- IC50 ([1]; Homo sapiens, SK-BR-3, Table 2, n = 3, read-out: IC50 SkBr3): 61.4 ± 4.7 µM
- IC50 ([1]; Table 13, various sugars on 8-methyl coumarin, 72 hours, read-out: IC50 SKBr3): 12.5 ± 0.7 µM
- IC50 [2, 20]: > 100 µM
- IC50 [7]: 24.8 ± 9.7 µM
- IC50 [3, 20]: 30.6 µM
- IC50 ([4]; Homo sapiens, MCF7, Table 2, n = 3, read-out: IC50 MCF-7): 30.1 ± 3.4 µM
- IC50 ([4]; Table 13, various sugars on 8-methyl coumarin, 72 hours, read-out: IC50 MCF7): 37.2 ± 2.1 µM
- IC50 [5, 20]: 3.65 µM
- IC50 [8]: 12.5 ± 0.9 µM
- IC50 [9]: 21.2 ± 2.2 µM

- IC50 [1, 10]: 0.48 ± 0.11 µM
- IC50 [2, 11]: 3.91 µM
- IC50 [3, 12]: 11.4 ± 6.56 µM
- IC50 [4, 13]: 0.57 ± 0.04 µM
- IC50 [5, 14]: 11.8 ± 0.68 µM
Structure (SMILES): Cc1c(OC2CCN(C)CC2)ccc2cc(NC(=O)c3cc4ccccc4[nH]3)c(=O)oc12 [KU-361]

- IC50 [1, 15]: 1.77 ± 0.15 µM
- IC50 [2, 16]: 8.8 µM
- IC50 [3, 17]: 6.2 µM
- IC50 [4, 18]: 3.08 ± 0.12 µM
- IC50 [5, 19]: 5.22 µM
Structure (SMILES): COc1cccc(-c2cc(C(=O)Nc3cc4ccc(OCCN(C)C)c(OC)c4oc3=O)ccc2OC)c1 [KU-292]

- IC50 [1, 15]: 1.42 ± 0.26 µM
- IC50 [2, 16]: 2.21 µM
- IC50 [3, 17]: 4.87 µM
- IC50 [4, 18]: 1.29 ± 0.21 µM
- IC50 [5, 19]: 4.71 µM
Structure (SMILES): COc1cccc(-c2cc(C(=O)Nc3cc4cc(OC)c(OCCN(C)C)c(C)c4oc3=O)ccc2OC)c1 [KU-294]

Structure (SMILES): CO[C@@H]1[C@@H](O)[C@@H](O)[C@H](Oc2ccc3cc(NC(=O)c4ccccc4N)c(=O)oc3c2C)OC1(C)C [18 KU-260]
- IC50 ([1]; Table 8, unsaturated azasugar analogues, 72 hours, read-out: IC50 SKBr3): 1.61 ± 0.1 µM
- IC50 [2, 21]: 1.42 µM
- IC50 [3, 21]: 4.36 µM
- IC50 ([4]; Table 8, unsaturated azasugar analogues, 72 hours, read-out: IC50 MCF-7): 1.73 µM
- IC50 [5, 21]: 4.23 µM

Structure (SMILES): CO[C@@H]1[C@@H](O)[C@@H](O)[C@H](Oc2ccc3cc(NC(=O)C=Cc4ccccc4)c(=O)oc3c2C)OC1(C)C [25, KU-254]
- IC50 [1, 22]: > 50 µM
- IC50 [3, 23]: 3.42 µM
- IC50 [4, 24]: > 50 µM
- IC50 [5, 23]: 0.23 µM

Structure (SMILES): CO[C@@H]1[C@@H](O)[C@@H](O)[C@H](Oc2ccc3cc(NC(=O)OCc4ccccc4)c(=O)oc3c2C)OC1(C)C [24, KU-249]
- IC50 [1, 22]: 2.91 ± 1.1 µM
- IC50 [2, 23]: 4.07 µM
- IC50 [3, 23]: 7.75 µM
- IC50 [4, 24]: 2.07 ± 1.1 µM
- IC50 [5, 23]: 6.73 µM

Source: patent US9120774B2 (University of Kansas, priority 2009, dated 2015)
